In patent publication US20180346505A1, “MONONUCLEOTIDES HAVING A BIOREVERSIBLE DISULFIDE GROUP” (priority 2014, published 2018):
Where “and” joins values, the source holds several entries; their conditions need not be identical. Equal values may be shown once. Read-outs that look alike come from different tables or passages of the source.

Legend:
GT1a (H77) HCV replicon = assay: HCV replicon assay, wild type GT1a (H77), luciferase based, stable format; type: cell-based, hepatitis C virus; settings: Huh-7 cells
Procedure: (§1) The antiviral activity of the test compounds was assessed in the wild type GT1b (Con1), GT1a (H77), and GT1b/2a, GT1b/3a, GT1b/4a and GT1b/5a NS5B chimeric replicons, as well as the NS5B mutant replicons listed in Table 2a and 2b.
(§2) All the replicon assays were luciferase based in Huh-7 cells, either in stable format (GT1b and GT1a) or by transient transfection by electroporation (chimeric and mutant replicons). For a standard HCV replicon assay, stable or transiently transfected Huh-7 cells were seeded in 96-well plates (5,000 cells/well), cultured in DMEM containing 10% FBS, and incubated at 37° C., 5% CO2. On the following day, test compounds were diluted with assay media and added to the appropriate wells (final DMSO concentration in the cell culture medium was 0.5%). Assay reference positive control was included in each run to ensure assay performance. Cells were incubated at 37° C., 5% CO2 for 72 hours, at which time the cells were still sub-confluent. The antiviral activity was determined by measuring replicon reporter firefly luciferase activity using Bright Glo kit in accordance with the protocol provided by the supplier (Promega). The toxicity of the test compounds was assessed by CytoTox-1 cell proliferation assay (Promega). The half maximal effective concentration (EC50) and the half maximal toxic concentration (TC50) values were calculated using the GraphPad Prism software.

[1] = test system: GT1b/2a NS5B chimeric replicon; assay: HCV replicon assay, GT1b/2a NS5B chimeric replicon, transient transfection; type: cell-based, hepatitis C virus
Procedure: as §1
(§3) To generate HCV NS5B chimeric replicons, the GT1 b replicon was used as a backbone with the NS5B gene replaced with the NS5B gene of GT2a, GT3a, GT4a and GT5a derived from clinical isolates. These NS5B genes were cloned into the GT1b backbone and were confirmed by sequencing.
as §2

[2] = test system: GT3a S282T NS5B mutant replicon; assay: HCV NS5B mutant replicon assay, GT3a S282T; type: cell-based; settings: Hepatitis C virus, Huh-7, 72 h, read-out: GT3a S282T EC50
Procedure: as §1, §3
(§4) The HCV replicon mutants were generated by site-directed mutagenesis (SDM). The SDM was performed by PCR and the PCR fragments were inserted into the backbone replicon construct. The inserted PCR fragments and the mutants were confirmed by sequencing.
as §2

[3] = test system: GT3a V321A NS5B mutant replicon; assay: HCV NS5B mutant replicon assay, GT3a V321A; type: cell-based; settings: Hepatitis C virus, Huh-7, 72 h, read-out: GT3a V321A EC50
Procedure: as §1, §3, §4, §2

[4] = test system: GT1a S282T NS5B mutant replicon; assay: HCV NS5B mutant replicon assay, GT1a S282T; type: cell-based; settings: Hepatitis C virus, Huh-7, 72 h, read-out: GT1a S282T EC50
Procedure: as §1, §4, §2

[5] = Nucleoside phosphoester stability in simulated intestinal fluid; type: in vitro ADME; settings: simulated gi fluid, 2 μM, pH 6.8
Procedure: Test compounds at 2 μM were incubated at 37° C. with simulated intestinal fluid (SIF), which contains 0.68% (w/v) monobasic potassium phosphate and 1% (w/v) pancreatin in ultra-pure water (pH 6.8). Duplicate samples were used. Samples were removed at 0, 15, 30, 60, 120, 360 and 1440 min, immediately mixed with cold acetonitrile containing an internal standard (IS), and stored at −80° C. before analysis. Chlorambucil was used as a positive control. Samples were analyzed by a LC/MS/MS method, and disappearance of test compound was assessed by comparison of peak area ratios of analyte/IS and reported as % test compound remaining at each time point.

[6] = test system: GT1a L159F NS5B mutant replicon; assay: HCV NS5B mutant replicon assay, GT1a L159F; type: cell-based; settings: Hepatitis C virus, Huh-7, 72 h, read-out: GT1a L159F EC50
Procedure: as §1, §4, §2

GT1b (Con1) HCV replicon = assay: HCV replicon assay, wild type GT1b (Con1), luciferase based, stable format; type: cell-based, hepatitis C virus; settings: Huh-7 cells, 72 hours
Procedure: as §1, §2

[7] = test system: GT1b/3a NS5B chimeric replicon; assay: HCV replicon assay, GT1b/3a NS5B chimeric replicon, transient transfection; type: cell-based, hepatitis C virus; settings: read-out: GT3a EC50; GT1b/3a NS5B chimeric replicon, Huh-7 cells, luciferase, 72 hours
Procedure: as §1, §3, §2

[8] = test system: GT1b/4a NS5B chimeric replicon; assay: HCV replicon assay, GT1b/4a NS5B chimeric replicon, transient transfection; type: cell-based, hepatitis C virus
Procedure: as §1, §3, §2

[9] = test system: GT1b C316N NS5B mutant replicon; assay: HCV NS5B mutant replicon assay, GT1b C316N; type: cell-based; settings: Hepatitis C virus, Huh-7, 72 h, read-out: GT1b C316N EC50
Procedure: as §1, §4, §2

[10] = test system: GT1b S96T NS5B mutant replicon; assay: HCV NS5B mutant replicon assay, GT1b S96T; type: cell-based; settings: Hepatitis C virus, Huh-7, 72 h, read-out: GT1b S96T EC50
Procedure: as §1, §4, §2

[11] = Nucleoside phosphoester stability in simulated gastric fluid; type: in vitro ADME; settings: simulated gastric fluid pH 1.2, 2 μM, 37° C.
Procedure: Test compounds at 2 μM were incubated at 37° C. with simulated gastric fluid (SGF, 0.2% (w/v) sodium chloride in 0.7% (v/v) hydrochloric acid, deionized water, 0.3% pepsin (w/v), pH 1.2). Duplicate samples were used. Samples were removed at 0, 15, 30, 60, 120, 360 and 1440 min, immediately mixed with cold acetonitrile containing internal standard (IS), and stored at −80° C. before analysis. Omeprazole was used as a positive control. Samples were analyzed by LC/MS/MS method, and disappearance of test compound was assessed by comparison of peak area ratios of analyte/IS and reported as % test compound remaining at each time point.

[12] = test system: GT1b L159F NS5B mutant replicon; assay: HCV NS5B mutant replicon assay, GT1b L159F; type: cell-based; settings: Hepatitis C virus, Huh-7, 72 h, read-out: GT1b L159F EC50
Procedure: as §1, §4, §2

[13] = test system: GT1b S282T NS5B mutant replicon; assay: HCV NS5B mutant replicon assay, GT1b S282T; type: cell-based; settings: Hepatitis C virus, Huh-7, 72 h, read-out: GT1b S282T EC50
Procedure: as §1, §4, §2

[14] = test system: GT3a L159F NS5B mutant replicon; assay: HCV NS5B mutant replicon assay, GT3a L159F; type: cell-based; settings: Hepatitis C virus, Huh-7, 72 h, read-out: GT3a L159F EC50
Procedure: as §1, §3, §4, §2

Huh-7 cells = assay: Toxicity by CytoTox-1 cell proliferation assay (TC50) and selectivity index; type: cell-based; settings: TC50 by CytoTox-1 cell proliferation assay over replicon EC50, Huh-7 cells
Procedure: as §2

[15] = test system: GT1b/5a NS5B chimeric replicon; assay: HCV replicon assay, GT1b/5a NS5B chimeric replicon, transient transfection; type: cell-based, hepatitis C virus
Procedure: as §1, §3, §2

[16] = read-out: GT2a EC50, GT1b/2a NS5B chimeric replicon, Huh-7 cells, luciferase, 72 hours
[17] = read-out: GT4a EC50, GT1b/4a NS5B chimeric replicon, Huh-7 cells, luciferase, 72 hours
[18] = read-out: GT5a EC50, GT1b/5a NS5B chimeric replicon, Huh-7 cells, luciferase, 72 hours

## CC(C)(C)SSc1ccccc1CCOP1(=O)OC[C@H]2O[C@@H](n3ccc(N)nc3=O)[C@](C)(F)[C@@H]2O1 (single isomer, unassigned) [Compound 9A]
GT1a (H77) HCV replicon; Hepatitis C virus, GT1A, Huh-7, 72 h
  EC50: 3 to 6 nM
[1]; Hepatitis C virus, Huh-7, 72 h, read-out: GT2a EC50, GT1b/2a NS5B chimeric replicon, Huh-7 cells, luciferase, 72 hours
  EC50: 3 nM
[2]
  EC50: 6 to 18 nM
[3]
  EC50: 12 nM
[4]
  EC50: 6 to 35 nM
[5]; 0 h
  % Remaining: 100.00%
[5]; 0.25 h
  % Remaining: 99.21%
[5]; 0.5 h
  % Remaining: 103.81%
[5]; 1 h
  % Remaining: 103.14%
[5]; 2 h
  % Remaining: 109.48%
[5]; 6 h
  % Remaining: 101.64%
[5]; 24 h
  % Remaining: 98.27%
[6]
  EC50: 10 nM
GT1b (Con1) HCV replicon
  EC50: 7 nM and 4 to 5 nM
[7]
  EC50: 6 nM and 4 to 6 nM
[8]; Hepatitis C virus, Huh-7, 72 h, read-out: GT4a EC50, GT1b/4a NS5B chimeric replicon, Huh-7 cells, luciferase, 72 hours
  EC50: 3 nM
[9]
  EC50: 4 nM
[10]
  EC50: 7 nM
[11]; 0 min
  % Remaining: 100.00%
[11]; 15 min
  % Remaining: 107.89%
[11]; 30 min
  % Remaining: 102.51%
[11]; 60 min
  % Remaining: 97.63%
[11]; 120 min
  % Remaining: 94.89%
[11]; 360 min
  % Remaining: 91.06%
[11]; 1440 min
  % Remaining: 76.22%
[12]
  EC50: 9 nM
[13]
  EC50: 23 to 25 nM
[14]
  EC50: 8 nM
Huh-7 cells
  Selectivity Index (TC50/EC50): >500
[15]; Hepatitis C virus, Huh-7, 72 h, read-out: GT5a EC50, GT1b/5a NS5B chimeric replicon, Huh-7 cells, luciferase, 72 hours
  EC50: 2 nM

## CC(C)(C)SSc1ccccc1CCOP1(=O)OC[C@H]2O[C@@H](n3ccc(N)nc3=O)[C@](C)(N)[C@@H]2O1 (single isomer, unassigned) [Compound 19A]
GT1a (H77) HCV replicon; 72 hours
  EC50: 169 nM
[1]; [16]
  EC50: 151 nM
GT1b (Con1) HCV replicon
  EC50: 177 nM
[7]
  EC50: 228 nM
[8]; [17]
  EC50: 77 nM
[15]; [18]
  EC50: 288 nM

## CC(C)(C)SSc1ccccc1CCOP1(=O)OC[C@H]2O[C@@H](n3ccc(N)nc3=O)[C@](C)(N)[C@@H]2O1 (single isomer, unassigned) [Compound 19B]
GT1a (H77) HCV replicon; 72 hours
  EC50: 858 nM
[1]; [16]
  EC50: 780 nM
GT1b (Con1) HCV replicon
  EC50: 1030 nM
[7]
  EC50: 1340 nM
[8]; [17]
  EC50: 344 nM
[15]; [18]
  EC50: 1350 nM
